For five molecules, inhibition results are on record in paper PMC5540273, “Progress towards a public chemogenomic set for protein kinases and a call for contributions” (PLoS ONE, 2017).

What all share (experiment): KINOMEscan competition binding
For one test, the target named is T1, GAK (Homo sapiens, UniProt O14976).
T1 sequence (O14976 1-1311): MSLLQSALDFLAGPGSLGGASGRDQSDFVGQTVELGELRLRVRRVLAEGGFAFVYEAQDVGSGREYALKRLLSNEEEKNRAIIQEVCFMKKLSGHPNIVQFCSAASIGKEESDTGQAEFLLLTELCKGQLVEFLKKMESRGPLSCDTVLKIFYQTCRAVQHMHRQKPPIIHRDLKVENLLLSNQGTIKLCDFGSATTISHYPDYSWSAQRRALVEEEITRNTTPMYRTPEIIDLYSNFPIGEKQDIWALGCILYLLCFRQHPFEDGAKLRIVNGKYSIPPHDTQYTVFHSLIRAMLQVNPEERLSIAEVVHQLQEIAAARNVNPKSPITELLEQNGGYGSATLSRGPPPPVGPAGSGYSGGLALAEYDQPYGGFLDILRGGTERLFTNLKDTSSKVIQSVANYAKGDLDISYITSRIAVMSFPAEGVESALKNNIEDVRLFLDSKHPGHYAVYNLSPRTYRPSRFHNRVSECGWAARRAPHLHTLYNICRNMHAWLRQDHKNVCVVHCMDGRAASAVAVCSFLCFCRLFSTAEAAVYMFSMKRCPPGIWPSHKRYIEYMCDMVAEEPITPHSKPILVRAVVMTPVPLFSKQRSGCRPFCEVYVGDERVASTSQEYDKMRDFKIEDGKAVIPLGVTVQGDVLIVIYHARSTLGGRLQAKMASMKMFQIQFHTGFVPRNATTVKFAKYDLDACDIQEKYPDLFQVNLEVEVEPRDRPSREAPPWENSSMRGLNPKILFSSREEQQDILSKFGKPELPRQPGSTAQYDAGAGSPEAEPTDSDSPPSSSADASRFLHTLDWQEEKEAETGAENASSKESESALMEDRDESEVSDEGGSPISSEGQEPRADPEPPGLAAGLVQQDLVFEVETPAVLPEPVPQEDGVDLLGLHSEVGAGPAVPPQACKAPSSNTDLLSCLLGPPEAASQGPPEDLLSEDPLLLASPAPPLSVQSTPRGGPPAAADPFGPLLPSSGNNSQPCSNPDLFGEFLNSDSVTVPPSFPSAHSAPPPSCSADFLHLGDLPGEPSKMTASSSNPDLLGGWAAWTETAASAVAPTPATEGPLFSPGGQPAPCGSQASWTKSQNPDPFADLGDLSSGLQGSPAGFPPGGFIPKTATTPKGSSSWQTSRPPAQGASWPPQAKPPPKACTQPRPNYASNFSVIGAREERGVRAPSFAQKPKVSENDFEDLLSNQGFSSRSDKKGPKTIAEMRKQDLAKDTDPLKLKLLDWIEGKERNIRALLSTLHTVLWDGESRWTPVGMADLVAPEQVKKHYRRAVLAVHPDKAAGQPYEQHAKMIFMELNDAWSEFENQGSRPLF
As to conditions: read-out: %Inh GAK.

The target of a further test is KIT (Homo sapiens, UniProt P10721). As to conditions: read-out: %Inh KIT.
In another test the target is T2, LZK (Homo sapiens, UniProt O43283).
T2 sequence (O43283 1-966): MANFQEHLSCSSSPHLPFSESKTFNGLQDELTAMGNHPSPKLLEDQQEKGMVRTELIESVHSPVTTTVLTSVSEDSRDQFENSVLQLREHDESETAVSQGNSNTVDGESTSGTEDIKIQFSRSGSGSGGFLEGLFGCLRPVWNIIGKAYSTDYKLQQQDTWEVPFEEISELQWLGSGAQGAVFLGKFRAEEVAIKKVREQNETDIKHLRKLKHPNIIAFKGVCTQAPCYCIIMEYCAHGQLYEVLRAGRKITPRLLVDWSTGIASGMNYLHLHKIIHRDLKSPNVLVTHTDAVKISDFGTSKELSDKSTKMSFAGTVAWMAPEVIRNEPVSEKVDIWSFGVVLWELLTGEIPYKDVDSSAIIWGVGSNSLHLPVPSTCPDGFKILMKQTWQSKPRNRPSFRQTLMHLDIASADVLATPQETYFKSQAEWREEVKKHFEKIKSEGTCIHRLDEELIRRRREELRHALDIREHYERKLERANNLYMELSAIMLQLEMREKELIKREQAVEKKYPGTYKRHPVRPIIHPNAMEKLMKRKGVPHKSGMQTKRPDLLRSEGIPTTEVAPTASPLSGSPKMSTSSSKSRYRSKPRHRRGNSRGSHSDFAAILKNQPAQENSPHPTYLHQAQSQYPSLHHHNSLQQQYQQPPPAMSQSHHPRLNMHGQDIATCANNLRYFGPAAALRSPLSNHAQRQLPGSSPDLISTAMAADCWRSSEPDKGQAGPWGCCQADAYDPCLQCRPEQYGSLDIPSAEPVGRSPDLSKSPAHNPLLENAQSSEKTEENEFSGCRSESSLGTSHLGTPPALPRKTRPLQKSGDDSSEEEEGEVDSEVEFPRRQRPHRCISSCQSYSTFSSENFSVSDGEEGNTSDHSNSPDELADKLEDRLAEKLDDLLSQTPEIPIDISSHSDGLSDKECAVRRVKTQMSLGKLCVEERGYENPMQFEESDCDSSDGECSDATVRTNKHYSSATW
As to conditions: read-out: %Inh LZK.

The target in another test is T3, MAK (Homo sapiens, UniProt P20794).
T3 sequence (P20794 1-623): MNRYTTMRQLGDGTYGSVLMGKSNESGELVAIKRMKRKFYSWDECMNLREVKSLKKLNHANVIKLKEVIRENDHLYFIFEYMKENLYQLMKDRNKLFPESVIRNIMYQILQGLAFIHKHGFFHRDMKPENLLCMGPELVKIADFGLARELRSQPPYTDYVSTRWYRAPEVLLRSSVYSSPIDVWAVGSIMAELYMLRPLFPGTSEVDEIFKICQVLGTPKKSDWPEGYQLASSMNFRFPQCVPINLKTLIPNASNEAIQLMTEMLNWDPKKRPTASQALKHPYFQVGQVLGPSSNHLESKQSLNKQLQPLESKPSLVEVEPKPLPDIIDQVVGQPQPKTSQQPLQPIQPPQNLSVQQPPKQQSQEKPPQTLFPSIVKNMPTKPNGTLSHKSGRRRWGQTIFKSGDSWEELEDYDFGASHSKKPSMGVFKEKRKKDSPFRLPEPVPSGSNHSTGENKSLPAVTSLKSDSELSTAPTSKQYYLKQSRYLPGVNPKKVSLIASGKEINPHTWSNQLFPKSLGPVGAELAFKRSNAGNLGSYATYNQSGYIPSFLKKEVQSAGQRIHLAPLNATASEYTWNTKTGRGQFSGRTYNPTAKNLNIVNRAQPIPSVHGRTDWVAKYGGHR
The settings on record: read-out: %Inh MAK.

Chain of KIT (P10721 26-976): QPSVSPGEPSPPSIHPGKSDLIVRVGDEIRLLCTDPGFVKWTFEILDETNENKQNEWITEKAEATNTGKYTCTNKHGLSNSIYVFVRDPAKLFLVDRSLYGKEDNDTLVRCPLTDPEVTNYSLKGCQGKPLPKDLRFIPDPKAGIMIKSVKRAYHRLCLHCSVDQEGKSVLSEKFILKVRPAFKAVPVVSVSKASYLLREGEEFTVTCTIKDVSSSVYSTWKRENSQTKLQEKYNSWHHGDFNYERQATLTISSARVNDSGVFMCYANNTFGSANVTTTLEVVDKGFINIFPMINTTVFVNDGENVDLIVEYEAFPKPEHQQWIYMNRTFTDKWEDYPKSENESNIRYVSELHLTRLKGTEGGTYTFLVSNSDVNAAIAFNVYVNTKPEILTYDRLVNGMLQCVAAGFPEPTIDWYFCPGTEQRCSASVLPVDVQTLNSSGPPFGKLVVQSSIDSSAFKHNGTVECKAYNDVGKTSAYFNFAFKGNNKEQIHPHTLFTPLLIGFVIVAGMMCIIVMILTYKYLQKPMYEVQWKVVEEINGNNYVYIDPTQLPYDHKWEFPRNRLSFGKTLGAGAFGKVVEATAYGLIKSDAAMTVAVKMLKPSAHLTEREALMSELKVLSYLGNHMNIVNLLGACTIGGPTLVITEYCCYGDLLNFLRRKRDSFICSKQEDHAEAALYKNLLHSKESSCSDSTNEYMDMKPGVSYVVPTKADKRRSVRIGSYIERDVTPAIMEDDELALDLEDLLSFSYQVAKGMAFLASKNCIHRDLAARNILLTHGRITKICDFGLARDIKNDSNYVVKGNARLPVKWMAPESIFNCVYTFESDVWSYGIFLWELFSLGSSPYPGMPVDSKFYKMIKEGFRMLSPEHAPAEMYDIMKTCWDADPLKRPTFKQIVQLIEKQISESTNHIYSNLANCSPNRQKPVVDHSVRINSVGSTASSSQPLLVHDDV

For the molecule `Cn1cc(-c2cnc(N)c3c(-c4ccc5c(c4)CCN5C(=O)Cc4ccccc4)csc23)cn1` [UNC10225012A], the inhibition at 1 µM was 11% on GAK, 100% on KIT, 0% at LZK and 0% on MAK.

In the case of `CS(=O)(=O)Cc1ccc(Nc2nccc(-c3c(-c4cccc(NC(=O)C5CCCCC5)c4)nn4ncccc34)n2)cc1` [UNC10225159A], the inhibition at 1 µM is 14% on GAK, 88% at KIT, 0% on LZK and 0% at MAK.

As for `Cc1ccc(NC(=O)Nc2cccc(C(F)(F)F)c2)cc1` [UNC10225187A], the inhibition at 1 µM came to 0% at GAK, 91.4% on KIT, 0% at LZK and 0% on MAK.

Take `COc1cccc(OC)c1C(=O)Nc1cccc(-c2nn3ccccc3c2-c2ccnc(Nc3cccc(F)c3)n2)c1` [UNC10225310A]: the inhibition at 1 µM stood at 6% on GAK, 90.9% at KIT, 8% on LZK and 14% on MAK.

With `O=c1cc(N2CCOCC2)nc2n(Cc3cccc(Cl)c3Cl)c(C3CC3)nn12` [UNC10225469A], the inhibition at 1 µM worked out at 11% on GAK, 0% on KIT, 0% at LZK and 0% on MAK.
